Measurements reported in patent US8188108B2, “Pharmaceutical composition” (priority 2002, dated 2012).
Like-named read-outs stand apart in the source and are kept apart here.

Key:
clinical = details: both, human, in vivo; for AUC(0-t) / AUC(0-inf) / Cmax: po, Least-Squares Means (LSM); for AUC(0-inf): AUCinf
[1] = plasma, fed vs fasting, Lortab + Colace co-administered, ln-transformed
[2] = plasma, fed vs fasting, Lortab administered alone, ln-transformed
[3] = plasma, with docusate vs without, fasting, ln-transformed
[4] = plasma, with docusate vs without, fed, ln-transformed
[5] = Form A, plasma, Treatment A: one 10 mg/500 mg Lortab tablet + one 50 mg Colace capsule, single oral dose, fasting
[6] = Form A, plasma, Treatment A: Lortab 10 mg/500 mg + Colace 50 mg, single oral dose, fasting
[7] = Form B, plasma, Treatment B: Lortab 10 mg/500 mg alone, single oral dose, fasting
[8] = Form C, plasma, Treatment C: Lortab 10 mg/500 mg + Colace 50 mg, single oral dose, fed
[9] = Form D, plasma, Treatment D: Lortab 10 mg/500 mg alone, single oral dose, fed

CC(=O)Nc1ccc(O)cc1 [Acetaminophen, acetaminophen]
effect of food on Cmax (rate of exposure) (fed vs fasting): lowering the Cmax | AUC 0-t, Least-Squares Means (LSM), Form D (plasma, Treatment D: one 10 mg/500 mg Lortab tablet alone, single oral dose, fed (30 min after start of standard breakfast)): 19545.72 ng·h/mL | AUC 0-t, Ratio of LSM (C/A) [1]: 93.5% | AUCinf, Ratio of LSM (C/A) [1]: 94.8% | Cmax, Ratio of LSM (C/A) [1]: 72.3% | AUC 0-t, Ratio of LSM (D/B) [2]: 94.3% | AUCinf, Ratio of LSM (D/B) [2]: 97.3% | Cmax, Ratio of LSM (D/B) [2]: 67.9% | AUC 0-t, Ratio of LSM (A/B) [3]: 101.4% | AUCinf, Ratio of LSM (A/B) [3]: 102.9% | Cmax, Ratio of LSM (A/B) [3]: 92.0% | AUC 0-t, Ratio of LSM (C/D) [4]: 100.5% | AUCinf, Ratio of LSM (C/D) [4]: 100.3% | Cmax, Ratio of LSM (C/D) [4]: 97.9% | effect of docusate on the pharmacokinetics (under fed and fasted conditions): no significant effect | AUC(0-t) (clinical; [5]): 21000 ng·h/mL | AUC(0-t) (clinical; Form B, plasma, Treatment B: one 10 mg/500 mg Lortab tablet alone, single oral dose, fasting): 20700 ng·h/mL | AUC(0-inf) (clinical; [6]): 22700 ng·h/mL | AUC(0-inf) (clinical; [7]): 22000 ng·h/mL | AUC(0-inf) (clinical; [8]): 21500 ng·h/mL | AUC(0-inf) (clinical; [9]): 21400 ng·h/mL | Cmax (clinical; [6]): 5450 ng/mL | Cmax (clinical; [7]): 5920 ng/mL | Cmax (clinical; [8]): 3940 ng/mL | Cmax (clinical; [9]): 4020 ng/mL

CCCCC(CC)COC(=O)CC(C(=O)OCC(CC)CCCC)S(=O)(=O)O (stereo not shown) [Docusate, dioctyl sodium sulphosuccinate]
absorption of docusate (measurable plasma concentrations) (50 mg Colace capsule oral, throughout the period of blood sampling): absorbed in measurable amounts | effect of food on Cmax (rate of exposure) (fed vs fasting): not significantly affected by food | AUC 0-t, Ratio of LSM (C/A) [1]: 124.2% | AUCinf, Ratio of LSM (C/A) [1]: 128.8% | Cmax, Ratio of LSM (C/A) [1]: 104.4% | Cmax, Ratio of LSM (C/A) (plasma, fed vs fasting, Lortab + Colace co-administered, ln-transformed, listed as docusate): 104.5% | AUC(0-t) (clinical; [5]): 1170 ng·h/mL | AUC(0-inf) (clinical; [6]): 1170 ng·h/mL | AUC(0-inf) (clinical; [8]): 1510 ng·h/mL | Cmax (clinical; [6]): 608 ng/mL | Cmax (clinical; [8]): 635 ng/mL

COc1ccc2c3c1O[C@H]1C(=O)CC[C@H]4[C@@H](C2)N(C)CC[C@]314 [Hydrocodone, hydrocodone]
AUC 0-t, Ratio of LSM (A/B) (both, human, in vivo): 102.5% | AUC 0-t, Ratio of LSM (C/A) (both, human, in vivo): 105.0% | AUC 0-t, Ratio of LSM (C/D) (both, human, in vivo): 97.4% | AUC 0-t, Ratio of LSM (D/B) (both, human, in vivo): 110.6% | AUCinf, Ratio of LSM (A/B) (both, human, in vivo): 107.2% | AUCinf, Ratio of LSM (C/A) (both, human, in vivo): 105.0% | AUCinf, Ratio of LSM (C/D) (both, human, in vivo): 97.4% | AUCinf, Ratio of LSM (D/B) (both, human, in vivo): 115.6% | Cmax, Ratio of LSM (A/B) (both, human, in vivo): 100.2% | Cmax, Ratio of LSM (C/A) (both, human, in vivo): 91.7% | Cmax, Ratio of LSM (C/D) (both, human, in vivo): 97.0% | Cmax, Ratio of LSM (D/B) (both, human, in vivo): 94.6% | effect of docusate on the pharmacokinetics (in vivo): no significant effect | effect of food on Cmax (rate of exposure) (in vivo): no significant effect | effect of food on extent of exposure (AUC) (in vivo): no significant effect | Tmax (clinical): ~1 h | AUC(0-t) (clinical; Form A): 135 ng·h/mL | AUC(0-t) (clinical; Form B): 132 ng·h/mL | AUC(0-t) (clinical; Form C): 142 ng·h/mL | AUC(0-t) (clinical; Form D): 146 ng·h/mL | AUC(0-inf) (clinical; Form A): 162 ng·h/mL | AUC(0-inf) (clinical; Form B): 151 ng·h/mL | AUC(0-inf) (clinical; Form C): 170 ng·h/mL | AUC(0-inf) (clinical; Form D): 175 ng·h/mL | Cmax (clinical; Form A): 24.3 ng/mL | Cmax (clinical; Form B): 24.2 ng/mL | Cmax (clinical; Form C): 22.3 ng/mL | Cmax (clinical; Form D): 22.9 ng/mL
